Measured values from PMC8958505, “Discovery of Potential Neuroprotective Agents against Paclitaxel-Induced Peripheral Neuropathy” (Journal of Medicinal Chemistry, 2022).

Experiments:
[1] = tested on: primary cortical neurons; assay: Synaptogenesis assay of primary cortical neurons (image-based HCS) against paclitaxel-induced neurotoxicity; format: cell-based, mouse; conditions: for activity at 0.01 µM / activity at 1 µM: Mus musculus, Primary cortical neuron; for activity at 0.01 µM: read-out: A: Synaptogenesis (% of control) of test compound (10 nM) + paclitaxel (1 μM); for activity at 1 µM: read-out: B: Synaptogenesis (% of control) of test compound (1000 nM) + paclitaxel (1 μM)
Description: (§1) Herein, we wish to report that an in vitro neurite outgrowth assay of cortical neurons integrated with an image-based high-content screening (HCS) platform is used to evaluate a commercially available library of 78 minoxidil-related derivatives,[22] leading to the identification of a series of analogues able to prevent or alleviate paclitaxel-induced neurotoxicity. The project began with screening compounds with the primary culture of cortical neurons from neonatal mice. More specifically, cerebral cortex neurons cultured from P0 C57BL/6J mouse pups were incubated with a test compound (10 and 1000 nM) prior to paclitaxel (1 μM) treatment. Subsequently, both neurite outgrowth and synaptogenesis were measured to evaluate the test compounds’ neuroprotective capacity. […] This unique feature is preserved for the core-structure screening of our in-house library in the following subject. Moreover, the substituent at the C4 position appears flexible in terms of structural diversity. Collectively, CSV0A024807, the only one displaying the best neuroprotective potency on both neurite outgrowth and synaptogenesis assays, was thus elected as a potential hit compound for further development.
(§2) Primary cortical or DRG cells were fixed with 4% paraformaldehyde for 15 min following compound and paclitaxel treatment. After washing with PBS, the fixed cells were permeabilized with PBS containing 0.05% Triton X-100 for 20 min and then blocked with commercial blocking buffer (#GTX30963; GeneTex, USA) at room temperature for 1 h. Subsequently, the cortical cells were stained for the extending processes and synaptic puncta by using anti-MAP2 (#MBS502140, 1:500; Mybiosource, USA) and anti-synaptophysin (#ab32127, 1:500; Abcam, UK) overnight. DRG cells were stained for the neurite and neuron nucleus by using anti-β III tubulin (#D71G9, 1:600; Cell Signaling, USA) and anti-NeuN monoclonal antibody (#MAB377, 1:400; Millipore, USA) overnight. On the second day, the samples were washed for 30 min with wash buffer and incubated with secondary antibodies (Alexa-488, 647 1:600; Thermo Fisher, USA) and 4 μg/mL Hoechst 33258 (#94403-1ML, 1:100; Merck, USA) at room temperature for 1 h. In the initial experiments of screening the potential neuroprotective compound for CIPN, ImageXpress^Micro (IXM) high-content imaging system (Molecular Devices, USA) driven by MetaXpress software was used. Images of treated cells were automatically acquired by using a 10× objective. Twenty-one images per well were taken in each of three channels (DAPI, FITC, and Cy5) to create a whole view of the entire neural network. The integrity of the neural network was evaluated using TIF images by importing them into MetaXpress software for analysis using the module for multiparameter, such as Neurite Outgrowth, Cell Scoring, and Transfluor. Furthermore, the score of synaptogenesis was analyzed in AcuityXpress software (Molecular Devices, USA).

[2] = tested on: primary cortical neurons; assay: Neurite outgrowth assay of primary cortical neurons (image-based HCS) against paclitaxel-induced neurotoxicity; format: cell-based, mouse; conditions: for activity at 0.01 µM / activity at 1 µM: Mus musculus, Primary cortical neuron; for activity at 0.01 µM: read-out: C: Neurite outgrowth (% of control) of test compound (10 nM) + paclitaxel (1 μM); for activity at 1 µM: read-out: D: Neurite outgrowth (% of control) of test compound (1000 nM) + paclitaxel (1 μM)
Description: as §1, §2

[3] = test compound 10 nM + paclitaxel 1 μM, mean ± SE
[4] = test compound 1000 nM + paclitaxel 1 μM, mean ± SE
[5] = test compound 10 and 1000 nM prior to paclitaxel 1 μM, Figure 1A

SMILES	activity at 0.01 µM [1, 3] [%]	activity at 1 µM [1, 4] [%]	activity at 0.01 µM [2, 3] [%]	activity at 1 µM [2, 4] [%]	further results
O=C(NNc1cc(N2CCOCC2)nc(N2CCOCC2)n1)c1ccccc1 [CSV0A051549]	86 ± 6	77 ± 7	71 ± 1	68 ± 1	protective effect in the neurite outgrowth assay (in words) [2, 5]: significant protective effect
CCN(CC)c1cc(N/N=C/c2ccccc2O)nc(N(CC)CC)n1 [CSV0B018834]	30 ± 3	31 ± 3	39 ± 3	39 ± 2	
O=[N+]([O-])c1ccc(/C=N/Nc2cc(N3CCOCC3)nc(N3CCOCC3)n2)cc1 [CSV0A024806]					A: Synaptogenesis (% of control) of test compound (10 nM) + paclitaxel (1 μM) [1, 3]: 68±6 % of control; B: Synaptogenesis (% of control) of test compound (1000 nM) + paclitaxel (1 μM) [1, 4]: 78±5 % of control; C: Neurite outgrowth (% of control) of test compound (10 nM) + paclitaxel (1 μM) [2, 3]: 70±3 % of control; D: Neurite outgrowth (% of control) of test compound (1000 nM) + paclitaxel (1 μM) [2, 4]: 68±6 % of control
COc1cc(/C=N/Nc2cc(N3CCCCC3)nc(N3CCCCC3)n2)ccc1O [CSV0B006088]	45 ± 6	52 ± 10	59 ± 5	66 ± 7	
CCN(CC)c1cc(N/N=C/c2ccncc2)nc(N(CC)CC)n1 [CSV0A029945]	35 ± 6	50 ± 0.3	41 ± 8	75 ± 8	
CCCN(CCC)c1cc(NNC(=O)CCc2ccccc2)nc(N(CCC)CCC)n1 [CSV0D043578]					activity at 0.01 µM [1]: 38 ± 3%; activity at 1 µM [1]: 42 ± 4%; activity at 0.01 µM [2]: 42 ± 5%; activity at 1 µM [2]: 48 ± 1%
CCN(CC)c1cc(N/N=C/c2ccc(Cl)cc2)nc(N(CC)CC)n1 [CSV0A020149]	43 ± 1	36 ± 1	52 ± 2	48 ± 3	
CN(C)c1cc(N/N=C/c2cc3c(c([N+](=O)[O-])c2)OCO3)nc(N(C)C)n1 [CSV0A047583]	66 ± 4	69 ± 5	63 ± 3	61 ± 3	
COc1cc(/C=N/Nc2cc(N3CCOCC3)nc(N3CCOCC3)n2)ccc1O [CSV0B002704]	38 ± 2	29 ± 6	79 ± 7	65 ± 3	
CN(C)c1ccc(/C=N/Nc2cc(N3CCCCC3)nc(N3CCCCC3)n2)cc1 [CSV0A041618]	83 ± 2	64 ± 7	55 ± 2	55 ± 2	attenuation of synaptogenesis inhibited by paclitaxel (in words) [1, 5]: significantly attenuated
CN(C)c1ccc(/C=N/Nc2cc(N3CCCC3)nc(N3CCCC3)n2)cc1 [CSV0A027460]	47 ± 1	33 ± 3	77 ± 1	63 ± 3	
O=C(CCc1ccccc1)NNc1cc(N2CCCCC2)nc(N2CCCCC2)n1 [CSV0A062711]					activity at 0.01 µM [1]: 36 ± 0.5%; activity at 1 µM [1]: 28 ± 3%; activity at 0.01 µM [2]: 80 ± 11%; activity at 1 µM [2]: 79 ± 6%
CC(C)(C)c1ccc(C(=O)NNc2cc(N3CCCCC3)nc(N3CCCCC3)n2)cc1 [CSV0B001160]	51 ± 5	41 ± 1	89 ± 7	80 ± 5	
CN(C)c1cc(N/N=C/c2ccc(Cl)cc2)nc(N(C)C)n1 [CSV0A027459]	35 ± 1	37 ± 2	76 ± 7	79 ± 11	
COc1ccccc1/C=N/Nc1cc(N2CCCC2)nc(N2CCCC2)n1 [CSV0A055771]	36 ± 2	40 ± 8	68 ± 6	68 ± 3	
CCN(CC)c1cc(N/N=C/c2ccc(O)c(OC)c2)nc(N(CC)CC)n1 [CSV0B009489]	34 ± 3	36 ± 3	39 ± 4	41 ± 3	
CCOc1ccc(Nc2nc(/N=C/c3c(OC)c(C(=O)Nc4ccccc4C)cc4ccccc34)c([N+](=O)[O-])c(NCc3ccccc3)n2)cc1 [CSVOD047961]	30 ± 3	36 ± 1	90 ± 2	95 ± 2	
CN(C)c1ccc(/C=N/Nc2cc(N3CCOCC3)nc(N3CCOCC3)n2)cc1 [CSV0A041617]	30 ± 1	30 ± 1	93 ± 5	94 ± 1	
Cc1ccc(S)c(Nc2cc(N)nc(N)n2)n1 [CSV0A0544S0]	63 ± 5	52 ± 8	60 ± 2	57 ± 5	
C(=N\Nc1cc(N2CCOCC2)nc(N2CCOCC2)n1)/c1ccncc1 [CSV0A024809]	38 ± 3	27 ± 0.5	77 ± 2	82 ± 3	
CN(C)c1cc(N/N=C/c2ccc(Cl)cc2Cl)nc(N(C)C)n1 [CSV0A047585]	67 ± 2	56 ± 0.2	57 ± 2	57 ± 2	
CCN(CC)c1cc(N/N=C/c2cccc(O)c2)nc(N(CC)CC)n1 [CSV0A007879]	38 ± 3	26 ± 5	42 ± 5	35 ± 4	
O=[N+]([O-])c1ccc(/C=N/Nc2cc(N3CCCCCC3)nc(N3CCCCCC3)n2)cc1 [CSV0A012753]	60 ± 1	61 ± 4	77 ± 7	75 ± 7	
CN(C)c1cc(N/N=C/c2cccc([N+](=O)[O-])c2)nc(N(C)C)n1 [CSV0A027458]	73 ± 3	73 ± 3	71 ± 3	65 ± 3	
Clc1ccc(/C=N/Nc2cc(N3CCCC3)nc(N3CCCC3)n2)cc1 [CSV0A024814]	46 ± 1	31 ± 1	81 ± 0.005	67 ± 2	
CCN(CC)c1cc(N/N=C/c2ccccc2OC)nc(N(CC)CC)n1 [CSV0A007655]	39 ± 4	41 ± 2	45 ± 7	51 ± 3	
